# PMC10850145, “Hormonal steroids induce multidrug resistance and stress response genes in Neisseria gonorrhoeae by binding to MtrR” (Nature Communications, 2024)
# Several values for one entry are separate records, joined by “and”; a condition that tells them apart may be missing. Equal entries are not always repeated.
# Columns and labels:
# N. gonorrhoeae = test system: N. gonorrhoeae; parameters: method as in PMID 816438; details: cited from earlier work
# MtrR D171A = biological target: T1, MtrR D171A (Neisseria gonorrhoeae, UniProt P39897, D171A); assay: biochemical; format: binding; details: ITC
# T1 construct: Hexa-histidine tag with TEV protease cleavage site (N, cleaved yes); made in house; host or cells: E. coli Rosetta Gami B(DE3) pLysS
# [1] = biological target: T2, MtrR binding to mtrCDE operator (21mer) (Neisseria gonorrhoeae, UniProt P39897); assay: Fluorescence polarization based DNA binding assay, mtrCDE operator; details: mtrCDE 21mer + 125 µM steroid
# T2 construct: Hexa-histidine tag with TEV protease cleavage site (N, cleaved yes); made in house; host or cells: E. coli Rosetta Gami B(DE3) pLysS
# Method: (§1) Fluorescence polarization based-DNA binding data were collected using a Panvera Beacon 2000 fluorescence polarization system (Invitrogen) and analyzed with Prism (Graphpad Software 9, 10). Purified MtrR was buffer exchanged into “DNA” binding buffer (150 mM NaCl, 20 mM Tris-HCl pH 7.5, 2.5% glycerol, 1 mM TCEP). […] The reported oligoduplexes containing the rpoH and mtrCDE binding site differ in lengths, 27mer and 21mer, respectively[17],[21]. […] BSA and dI-dC are included as carriers and to control for nonspecific DNA binding. Samples were excited at 490 nm and polarized emissions measured at 530 nm. Controls were run with no protein (DNA ± methanol, hormonal steroids) to ensure that millipolarization values were not affected by experimental conditions alone. The binding affinity of protein for DNA was determined using the following equation: P = Pf + (Pb – Pf) [M] / (Kd + [M]) where P is the measured polarization, Pf is the polarization of free DNA, Pb is the polarization of the completely bound DNA, Kd is the equilibrium dissociation constant, and M is the concentration of protein. Pb and Kd were determined by nonlinear least-squares analysis. At least three independent experimental measurements were averaged for each reported binding constant.
# [2] = biological target: T3, MtrR binding to rpoH operator (27mer) (Neisseria gonorrhoeae, UniProt P39897); assay: Fluorescence polarization based DNA binding assay, rpoH operator; details: rpoH 27mer + 125 µM steroid
# T3 construct: Hexa-histidine tag with TEV protease cleavage site (N, cleaved yes); made in house; host or cells: E. coli Rosetta Gami B(DE3) pLysS
# Method: as §1
# MtrR = biological target: T4, MtrR (Neisseria gonorrhoeae, UniProt P39897); assay: Isothermal titration calorimetry, ligand binding to MtrR WT; details: ITC
# T4 construct: Hexa-histidine tag with TEV protease cleavage site (N, cleaved yes); made in house; host or cells: E. coli Rosetta Gami B(DE3) pLysS
# MtrR R176E = biological target: T5, MtrR R176E (Neisseria gonorrhoeae, UniProt P39897, R176E); assay: biochemical; format: binding
# T5 construct: Hexa-histidine tag with TEV protease cleavage site (N, cleaved yes); made in house; host or cells: E. coli Rosetta Gami B(DE3) pLysS
# T5 sequence (P39897 whole entry R176E): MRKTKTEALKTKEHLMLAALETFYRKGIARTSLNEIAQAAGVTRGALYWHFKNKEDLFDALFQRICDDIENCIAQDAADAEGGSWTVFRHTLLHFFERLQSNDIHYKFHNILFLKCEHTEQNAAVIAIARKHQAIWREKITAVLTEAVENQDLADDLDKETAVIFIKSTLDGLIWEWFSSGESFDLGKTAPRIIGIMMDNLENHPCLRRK
# T4 sequence (P39897 whole entry): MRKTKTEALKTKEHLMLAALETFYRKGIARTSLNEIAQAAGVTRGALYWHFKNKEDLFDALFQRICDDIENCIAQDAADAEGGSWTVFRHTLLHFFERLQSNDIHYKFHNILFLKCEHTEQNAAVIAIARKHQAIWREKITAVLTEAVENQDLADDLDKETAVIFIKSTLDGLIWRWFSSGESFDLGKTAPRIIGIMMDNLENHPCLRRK
# T3 sequence (P39897 whole entry): as above
# T2 sequence (P39897 whole entry): as above
# T1 sequence (P39897 whole entry D171A): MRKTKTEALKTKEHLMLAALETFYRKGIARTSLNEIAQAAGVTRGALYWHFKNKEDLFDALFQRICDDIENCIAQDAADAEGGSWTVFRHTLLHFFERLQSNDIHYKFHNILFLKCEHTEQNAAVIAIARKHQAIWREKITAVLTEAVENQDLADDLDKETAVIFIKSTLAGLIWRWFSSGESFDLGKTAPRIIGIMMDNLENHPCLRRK
smiles,measurement,setting,value
"C[C@]12CC[C@@H]3c4ccc(O)cc4CC[C@H]3[C@@H]1CC[C@@H]2O [β-Estradiol, β-estradiol]",growth inhibition of N. gonorrhoeae,N. gonorrhoeae,arrest N. gonorrhoeae growth
same,binding to MtrR D171A,MtrR D171A,no observable binding
same,"fluorescence polarization, MtrR titration",[1]; MtrR WT dimer 0.00 nM,0.00 mP
same,"fluorescence polarization, MtrR titration",[1]; MtrR WT dimer 6.35 nM,4.51 mP and 6.27 mP and 3.99 mP
same,"fluorescence polarization, MtrR titration",[1]; MtrR WT dimer 11.32 nM,5.41 mP and 7.10 mP and 5.13 mP
same,"fluorescence polarization, MtrR titration",[1]; MtrR WT dimer 16.21 nM,7.14 mP and 8.80 mP and 6.33 mP
same,"fluorescence polarization, MtrR titration",[1]; MtrR WT dimer 35.50 nM,8.94 mP and 8.19 mP
same,"fluorescence polarization, MtrR titration",[1]; MtrR WT dimer 73.35 nM,10.97 mP and 13.97 mP and 11.09 mP
same,"fluorescence polarization, MtrR titration",[1]; MtrR WT dimer 110.67 nM,13.61 mP and 15.83 mP and 13.69 mP
same,"fluorescence polarization, MtrR titration",[1]; MtrR WT dimer 147.65 nM,16.87 mP and 18.60 mP and 16.09 mP
same,"fluorescence polarization, MtrR titration",[1]; MtrR WT dimer 220.59 nM,20.11 mP and 24.13 mP and 19.63 mP
same,"fluorescence polarization, MtrR titration",[1]; MtrR WT dimer 292.55 nM,24.17 mP and 25.77 mP and 23.16 mP
same,"fluorescence polarization, MtrR titration",[1]; MtrR WT dimer 363.86 nM,26.44 mP and 29.33 mP and 25.99 mP
same,"fluorescence polarization, MtrR titration",[1]; MtrR WT dimer 434.54 nM,30.01 mP and 30.57 mP and 27.99 mP
same,"fluorescence polarization, MtrR titration",[1]; MtrR WT dimer 504.61 nM,31.07 mP and 33.77 mP and 30.59 mP
same,"fluorescence polarization, MtrR titration",[1]; MtrR WT dimer 574.07 nM,34.21 mP and 36.80 mP and 32.93 mP
same,"fluorescence polarization, MtrR titration",[1]; MtrR WT dimer 711.46 nM,37.61 mP and 38.13 mP and 35.23 mP
same,"fluorescence polarization, MtrR titration",[1]; MtrR WT dimer 848.00 nM,39.37 mP and 41.63 mP and 41.06 mP
same,"fluorescence polarization, MtrR titration",[2]; MtrR WT dimer 0.00 nM,0.00 mP
same,"fluorescence polarization, MtrR titration",[2]; MtrR WT dimer 25.90 nM,3.74 mP and 5.72 mP and 6.73 mP
same,"fluorescence polarization, MtrR titration",[2]; MtrR WT dimer 35.50 nM,6.01 mP and 7.12 mP and 8.13 mP
same,"fluorescence polarization, MtrR titration",[2]; MtrR WT dimer 54.52 nM,8.01 mP and 9.55 mP and 10.56 mP
same,"fluorescence polarization, MtrR titration",[2]; MtrR WT dimer 73.35 nM,11.39 mP and 12.36 mP
same,"fluorescence polarization, MtrR titration",[2]; MtrR WT dimer 110.67 nM,12.31 mP and 14.15 mP and 15.93 mP
same,"fluorescence polarization, MtrR titration",[2]; MtrR WT dimer 147.65 nM,15.17 mP and 15.72 mP and 17.43 mP
same,"fluorescence polarization, MtrR titration",[2]; MtrR WT dimer 220.59 nM,18.17 mP and 19.19 mP and 21.36 mP
same,"fluorescence polarization, MtrR titration",[2]; MtrR WT dimer 292.55 nM,20.01 mP and 21.72 mP and 23.36 mP
same,"fluorescence polarization, MtrR titration",[2]; MtrR WT dimer 363.86 nM,21.41 mP and 22.99 mP and 26.06 mP
same,"fluorescence polarization, MtrR titration",[2]; MtrR WT dimer 434.54 nM,23.51 mP and 24.99 mP and 26.53 mP
same,"fluorescence polarization, MtrR titration",[2]; MtrR WT dimer 504.61 nM,25.37 mP and 27.45 mP and 28.59 mP
same,"fluorescence polarization, MtrR titration",[2]; MtrR WT dimer 574.07 nM,29.37 mP and 27.75 mP and 29.19 mP
same,binding stoichiometry N (ligand per MtrR),MtrR,~ 1
same,Kd,"MtrR; 25 °C, 1% MeOH, read-out: equilibrium dissociation constant (Kd), MtrR WT",1.67 µM and ~1.67 µM
same,binding stoichiometry N (ligand per MtrR),MtrR; listed as EST,one molecule of steroid per MtrR monomer
same,Kd,MtrR R176E,0.72 ± 0.15 µM
